Here are results for 2 compounds from ChEMBL document CHEMBL6120974, “Hydrazide-Based Class I Selective HDAC Inhibitors Completely Reverse Chemoresistance Synergistically in Platinum-Resistant Solid Cancer Cells” (J Med Chem, 2024).

In series [1] the test system is A2780. Nature of the series: Induction of apoptosis in human A2780 cells assessed as caspase-3/7 activation at 2 uM incubated for 48 hrs by capase3/7 green dye based analysis. Type of series: functional, cell-based.
In series [2] the test system is A2780. Nature of the series: Induction of apoptosis in human A2780 cells assessed as increase in caspase 3/7 activation at 0.75 uM in presence of cisplatin preincubated with compound for 48 hrs co-treated with cisplatin and measured after 24 hrs by capase3/7 green dye based analysis. Particulars: time 72.0 hrs. Type of series: functional, cell-based.
Series [3] has as its system CAL-27. Nature of the series: Induction of apoptosis in human CAL-27 cells assessed as increase in apoptotic nuclei at sub-G1 phase at 0.316 uM in presence of cisplatin at 3 uM preincubated with compound for 48 hrs prior to addition of cisplatin and measured after 24 hrs by flow cytometric analysis. Type of series: functional, cell-based. To be noted: time 72.0 hrs. For orientation: In flow cytometry, cells or beads pass a laser one at a time.

Series [4] relates to Cal27CisR. Nature of the series: Induction of apoptosis in cisplatin resistant human Cal27CisR cells assessed as increase in apoptotic nuclei at sub-G1 phase at 0.316 uM in presence of cisplatin at 3 uM preincubated with compound for 48 hrs prior to addition of cisplatin and measured after 24 hrs by flow cytometric analysis. Type of series: functional, cell-based. To be noted: time 72.0 hrs.

The test system of series [5] is A2780. Nature of the series: Induction of apoptosis in human A2780 cells assessed as increase in apoptotic nuclei at sub-G1 phase at 2 uM incubated for 48 hrs by flow cytometric analysis. Type of series: functional, cell-based.
The subject of series [6] is A2780cisR. Nature of the series: Induction of apoptosis in cisplatin resistant human A2780 cisR cells assessed as increase in apoptotic nuclei at sub-G1 phase at 2 uM incubated for 48 hrs by flow cytometric analysis. Type of series: functional, cell-based.
Series [7] relates to CAL-27. Nature of the series: Induction of apoptosis in human CAL-27 cells assessed as increase in Bcl-2 protein level at 0.316 uM in presence of cisplatin at 3 uM preincubated with compound for 48 hrs prior to addition of cisplatin and measured after 24 hrs by Immunoblotting analysis. Type of series: functional, cell-based. Background: A western blot detects proteins with antibodies after separation by electrophoresis.

For series [8], the system named is A2780. Nature of the series: Induction of apoptosis in human A2780 cells assessed as decrease in Bcl-2 protein level at 0.75 uM incubated for 48 hrs by Immunoblotting analysis. Type of series: functional, cell-based.
Series [9] has as its system A2780. Nature of the series: Induction of apoptosis in human A2780 cells assessed as decrease in Bcl-2 protein level at 0.75 uM in presence of cisplatin at 3.5 uM preincubated with compound for 48 hrs prior to addition of cisplatin and measured after 24 hrs by Immunoblotting analysis. Type of series: functional, cell-based. Particulars: time 72.0 hrs.
Series [10] relates to Cal27CisR. Nature of the series: Induction of cell cycle arrest in cisplatin resistant human Cal27CisR cells assessed as increase in p21 expression at 0.316 uM incubated for 48 hrs by Western blotting analysis. Type of series: functional, cell-based.
In series [11] the test system is CAL-27. Nature of the series: Downregulation of survivin expression in human CAL-27 cells at 0.316 uM in presence of cisplatin at 3 uM preincubated with compound for 48 hrs prior to addition of cisplatin and measured after 24 hrs by Immunoblotting analysis. Type of series: functional, cell-based. To be noted: time 72.0 hrs.
Series [12] relates to A2780cisR. Nature of the series: Downregulation of survivin expression in cisplatin resistant human A2780 cisR cells at 2 uM incubated for 48 hrs by Immunoblotting analysis. Type of series: functional, cell-based.
In series [13] the test system is A2780. Nature of the series: Downregulation of survivin expression in human A2780 cells at 0.75 uM in presence of cisplatin at 3.5 uM preincubated with compound for 48 hrs prior to addition of cisplatin and measured after 24 hrs by Immunoblotting analysis. Type of series: functional, cell-based. To be noted: time 72.0 hrs.
Series [14] concerns Cal27CisR. Nature of the series: Downregulation of BAX expression in cisplatin resistant human Cal27CisR cells at 0.316 uM incubated for 48 hrs by Immunoblotting analysis. Type of series: functional, cell-based.
Series [15] has as its system A2780. Nature of the series: Induction of apoptosis in human A2780 cells assessed as increase in BIM expression at 0.75 uM incubated for 48 hrs by Immunoblotting analysis. Type of series: functional, cell-based.
In series [16] the test system is A2780cisR. Nature of the series: Induction of apoptosis in cisplatin resistant human A2780 cisR cells assessed as increase in BIM expression at 2 uM incubated for 48 hrs by Immunoblotting analysis. Type of series: functional, cell-based.
Series [17] in a line: Cytotoxicity against human HEK293 cells assessed as reduction in cell viability incubated for 72 hrs by MTT assay. Type of series: toxicity, cell-based.
Series [18] concerns A2780cisR. Nature of the series: Induction of apoptosis in cisplatin resistant human A2780 cisR cells assessed as increase in apoptotic nuclei at sub-G1 phase at 2 uM in presence of cisplatin at 16 uM preincubated with compound for 48 hrs prior to addition of cisplatin and measured after 24 hrs by flow cytometric analysis. Type of series: functional, cell-based. To be noted: time 72.0 hrs.

Series [19] in a line: cells. Particulars: Homo sapiens, A2780.
Description: Inhibition of class I/6 HDAC (unknown origin) in human A2780 cells using Boc-Lys(epsilon-Ac)-AMC as substrate preincubated with compound for 18 hrs followed by substrate addition and measured after 3 hrs by NOVOstar microplate reader analysis
The nature of series [20]: cells. To be noted: Homo sapiens, Cal27CisR.
Description: Inhibition of class I/6 HDAC (unknown origin) in cisplatin resistant human Cal27CisR cells using Boc-Lys(epsilon-Ac)-AMC as substrate preincubated with compound for 18 hrs followed by substrate addition and measured after 3 hrs by NOVOstar microplate reader analysis
Series [21] concerns A2780. Nature of the series: cells. To be noted: Homo sapiens, A2780, 72 h.
Description: Cytotoxicity against human A2780 cells assessed as reduction in cell viability incubated for 72 hrs by MTT assay
Series [22] in a line: cells. Particulars: Homo sapiens, Cal27CisR. This is another data set of the same source.
Description: Inhibition of class IIa/8 HDAC (unknown origin) in cisplatin resistant human Cal27CisR cells using Boc-Lys(TFA)-AMC as substrate preincubated with compound for 18 hrs followed by substrate addition and measured after 3 hrs by NOVOstar microplate reader analysis

The source made the active and inactive calls. The calls are words filed in the database; no cut-off is given here.

Turning to `CCCNNC(=O)c1ccc(CN(CC(=O)NCc2ccccc2)C(=O)c2ccc(N(C)C)cc2)cc1`, the Activity result is “Active; Remarkable Activation Observed” with A2780 [1] and “Not active; Slight Increase Observed” in the series with CAL-27 [7]. Besides, the outcome with A2780 [2], with CAL-27 [3], with Cal27CisR [4], with A2780 [5], in the series on A2780cisR [6] and in the series with A2780 [8] was Active. The result in the series with A2780 [9], in the series with Cal27CisR [10], with CAL-27 [11], in the series with A2780cisR [12], in the series with A2780 [13] and in the series on Cal27CisR [14] was Active. Moreover, the outcome in the series with A2780cisR [16] was Active. Further, the outcome with A2780 [15] and in the series on A2780cisR [18] was inactive. Also, in series [17], the IC50 – broadly, the concentration needed to halve the response being measured – at 72 h was 1160 nM. In addition, the IC50 came to 235 nM in “cells [19]”, 155 nM in the series “cells [20]”, 1130 nM in the series with A2780 [21] and 2320 nM in the series “cells [22]”.
As to `CCCCNNC(=O)c1ccc(CN(CC(=O)NCc2ccccc2)C(=O)c2ccc(N(C)C)cc2)cc1`, the results for the Activity entry with A2780 [1] and in the series with CAL-27 [7] were “Active; Remarkable Activation Observed” and “Not active; Slight Increase Observed”, respectively. For the same compound, the outcome in the series on A2780 [2], with CAL-27 [3], with Cal27CisR [4], in the series with A2780 [5], with A2780cisR [6] and in the series on A2780 [8] was Active. In addition, the result with A2780 [9], in the series on Cal27CisR [10], in the series on CAL-27 [11], in the series with A2780cisR [12], in the series on A2780 [13] and in the series on Cal27CisR [14] was Active. Also, the outcome with A2780cisR [16] was Active. The outcome with A2780 [15] and in the series on A2780cisR [18] was inactive. In series [17], the concentration for half-maximal inhibition (IC50) at 72 h was determined as 1090 nM. The 50% inhibitory concentration (IC50) in “cells [19]” was 263 nM; in “cells [20]” it was 156 nM; in the series on A2780 [21], 894 nM; in the series “cells [22]” it was 2220 nM.
